For 12 compounds, IC50 results are on record in patent US12172995B2, “Substituted indole and indazole compounds” (BRISTOL-MYERS SQUIBB COMPANY, priority 2018, dated 2024).

Molecules are shown by their SMILES.

One may read the IC50 as the midpoint of a concentration-inhibition curve. Read a low IC50 as inhibition by little substance.

Type in all cases: cell-based
One experiment deals with T1, human TLR8 (Homo sapiens, UniProt Q9NR97).
T1 construct: host or cells: HEK-Blue cells
T1 sequence (Q9NR97 27-1041): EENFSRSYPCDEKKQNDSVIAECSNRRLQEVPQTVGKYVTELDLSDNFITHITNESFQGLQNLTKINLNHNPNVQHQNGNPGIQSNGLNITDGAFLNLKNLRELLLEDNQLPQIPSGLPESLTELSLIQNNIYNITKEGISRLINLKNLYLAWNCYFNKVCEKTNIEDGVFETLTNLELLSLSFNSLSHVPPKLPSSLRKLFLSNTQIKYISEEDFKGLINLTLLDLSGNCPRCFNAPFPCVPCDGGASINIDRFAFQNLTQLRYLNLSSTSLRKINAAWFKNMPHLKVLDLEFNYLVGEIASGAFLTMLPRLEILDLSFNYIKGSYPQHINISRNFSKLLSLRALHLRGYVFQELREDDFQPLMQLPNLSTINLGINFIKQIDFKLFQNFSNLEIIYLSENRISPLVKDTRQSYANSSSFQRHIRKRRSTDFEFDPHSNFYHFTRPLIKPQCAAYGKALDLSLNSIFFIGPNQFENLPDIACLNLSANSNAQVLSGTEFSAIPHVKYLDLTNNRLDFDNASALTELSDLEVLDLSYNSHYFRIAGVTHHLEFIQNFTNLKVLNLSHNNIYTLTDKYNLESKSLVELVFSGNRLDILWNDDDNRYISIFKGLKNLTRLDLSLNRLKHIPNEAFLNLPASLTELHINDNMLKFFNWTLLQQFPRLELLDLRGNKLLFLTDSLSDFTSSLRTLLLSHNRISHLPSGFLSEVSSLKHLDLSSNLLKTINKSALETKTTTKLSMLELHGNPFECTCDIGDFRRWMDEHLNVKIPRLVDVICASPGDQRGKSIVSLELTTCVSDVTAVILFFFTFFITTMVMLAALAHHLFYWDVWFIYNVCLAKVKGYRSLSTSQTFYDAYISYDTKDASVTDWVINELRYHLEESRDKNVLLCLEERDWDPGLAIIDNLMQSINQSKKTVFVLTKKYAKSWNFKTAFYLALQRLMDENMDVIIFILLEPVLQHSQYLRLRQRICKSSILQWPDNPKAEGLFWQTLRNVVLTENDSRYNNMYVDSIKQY
As to the kind of experiment: TLR8 inhibition reporter assay (HEK-Blue SEAP). To be noted: HEK-Blue cells overexpressing human TLR8, stimulated with R848 15.9 μM, 22 hour incubation. The procedure, abridged: (§1)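 HEK-Blue cells overexpressing human TLR7, TLR8 or TLR9 with an NF-κB/AP-1-driven SEAP reporter were pre-treated 30 min at room temperature with compound (0.05 nM to 50 μM), then stimulated with gardiquimod 7.5 μM (TLR7), R848 15.9 μM (TLR8) or ODN2006 5 nM (TLR9). SEAP measured after 22 h at 37° C; inhibition normalized between agonist-plus-DMSO and reference-inhibitor wells.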
A general note: Reporter assays use an easily measured gene product as a stand-in for the process of interest.

In a further experiment the target is T2, human TLR7 (Homo sapiens, UniProt Q9NYK1).
T2 construct: host or cells: HEK-Blue cells
T2 sequence (Q9NYK1 27-1049): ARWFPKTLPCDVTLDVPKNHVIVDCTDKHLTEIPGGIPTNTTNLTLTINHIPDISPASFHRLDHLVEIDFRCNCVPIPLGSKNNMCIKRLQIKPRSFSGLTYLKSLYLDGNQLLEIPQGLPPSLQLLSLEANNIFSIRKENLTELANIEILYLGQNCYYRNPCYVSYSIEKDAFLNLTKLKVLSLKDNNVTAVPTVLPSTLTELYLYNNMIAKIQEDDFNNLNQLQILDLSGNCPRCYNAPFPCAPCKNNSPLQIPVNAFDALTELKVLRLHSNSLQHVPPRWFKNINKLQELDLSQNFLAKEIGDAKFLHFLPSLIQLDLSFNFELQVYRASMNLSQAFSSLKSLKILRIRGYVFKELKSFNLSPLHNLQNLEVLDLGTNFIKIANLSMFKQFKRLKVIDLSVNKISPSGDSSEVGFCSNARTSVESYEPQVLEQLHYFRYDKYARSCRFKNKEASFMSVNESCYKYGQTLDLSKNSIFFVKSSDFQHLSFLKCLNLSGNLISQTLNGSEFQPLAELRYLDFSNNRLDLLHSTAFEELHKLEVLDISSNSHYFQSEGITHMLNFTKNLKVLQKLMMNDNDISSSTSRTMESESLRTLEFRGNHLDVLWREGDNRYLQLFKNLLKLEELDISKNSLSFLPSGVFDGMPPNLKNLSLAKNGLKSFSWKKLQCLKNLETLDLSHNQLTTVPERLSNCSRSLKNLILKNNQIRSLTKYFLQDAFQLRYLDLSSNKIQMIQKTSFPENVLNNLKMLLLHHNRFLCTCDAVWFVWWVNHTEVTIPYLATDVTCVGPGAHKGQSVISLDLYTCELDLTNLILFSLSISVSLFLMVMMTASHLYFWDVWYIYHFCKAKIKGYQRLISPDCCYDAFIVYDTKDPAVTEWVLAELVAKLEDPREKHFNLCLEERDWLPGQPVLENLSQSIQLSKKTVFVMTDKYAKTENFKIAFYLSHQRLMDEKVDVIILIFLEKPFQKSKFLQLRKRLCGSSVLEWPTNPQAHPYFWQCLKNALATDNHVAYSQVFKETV
As to the kind of experiment: TLR7 inhibition reporter assay (HEK-Blue SEAP). Particulars: HEK-Blue cells overexpressing human TLR7, stimulated with gardiquimod 7.5 μM, 22 hour incubation. The procedure, abridged:
as §1

For the next experiment, the target named is T3, human TLR9 (Homo sapiens, UniProt Q9NR96).
T3 construct: host or cells: HEK-Blue cells
T3 sequence (Q9NR96 26-1032): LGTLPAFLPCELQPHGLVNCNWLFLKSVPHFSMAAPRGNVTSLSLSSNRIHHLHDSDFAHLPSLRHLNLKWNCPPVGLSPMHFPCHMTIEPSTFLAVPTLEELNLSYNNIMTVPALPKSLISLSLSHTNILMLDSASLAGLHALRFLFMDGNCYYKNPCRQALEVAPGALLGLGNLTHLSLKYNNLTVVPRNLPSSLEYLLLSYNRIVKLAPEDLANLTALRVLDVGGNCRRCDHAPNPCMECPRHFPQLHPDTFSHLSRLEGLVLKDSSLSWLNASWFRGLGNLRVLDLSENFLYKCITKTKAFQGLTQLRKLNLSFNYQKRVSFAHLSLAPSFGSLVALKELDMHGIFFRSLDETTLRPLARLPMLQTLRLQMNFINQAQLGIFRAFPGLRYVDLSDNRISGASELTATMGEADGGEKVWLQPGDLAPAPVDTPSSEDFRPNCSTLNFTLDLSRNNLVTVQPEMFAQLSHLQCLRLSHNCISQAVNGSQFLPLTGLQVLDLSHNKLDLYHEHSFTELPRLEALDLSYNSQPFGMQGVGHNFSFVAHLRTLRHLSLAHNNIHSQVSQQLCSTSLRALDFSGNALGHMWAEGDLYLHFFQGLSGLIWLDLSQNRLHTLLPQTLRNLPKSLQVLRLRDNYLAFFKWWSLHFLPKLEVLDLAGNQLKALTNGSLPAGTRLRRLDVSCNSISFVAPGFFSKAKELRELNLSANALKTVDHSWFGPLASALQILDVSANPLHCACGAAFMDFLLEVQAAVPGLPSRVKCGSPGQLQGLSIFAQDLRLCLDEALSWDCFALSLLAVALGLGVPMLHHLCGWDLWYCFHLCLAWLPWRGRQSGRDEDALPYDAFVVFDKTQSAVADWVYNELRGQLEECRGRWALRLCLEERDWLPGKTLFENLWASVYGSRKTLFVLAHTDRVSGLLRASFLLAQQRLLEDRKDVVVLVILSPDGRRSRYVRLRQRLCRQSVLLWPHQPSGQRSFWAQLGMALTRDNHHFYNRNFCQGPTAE
As to the kind of experiment: TLR9 inhibition reporter assay (HEK-Blue SEAP). To be noted: HEK-Blue cells overexpressing human TLR9, stimulated with ODN2006 5 nM, 22 hour incubation. The procedure, abridged: as §1

In the case of `Cc1cc2c(OC3CCN(C(=O)CN(C)C)CC3)n[nH]c2cc1-c1cc(C)c2ncnn2c1` [Example 170, 2-(dimethylamino)-1-(4-((5-methyl-6-(8-methyl-[1,2,4]triazolo[1,5-a]pyridin-6-yl)-1H-indazol-3-yl)oxy)piperidin-1-yl)ethan-1-one], the IC50 was 3 nM at human TLR8, 13.3 nM against human TLR7 and 5730 nM at human TLR9.

In the case of `Cc1cc2c(OC3CCN(C)CC3)n[nH]c2cc1-c1cc(C)c2ncnn2c1` [Example 171, 8-methyl-6-(5-methyl-3-((1-methylpiperidin-4-yl)oxy)-1H-indazol-6-yl)-[1,2,4]triazolo[1,5-a] pyridine], the IC50 at human TLR8 is 0.1 nM; against human TLR7, 8.2 nM; on human TLR9 it was 2770 nM.

Consider `Cc1cc2c(OCCN(C)C)n[nH]c2cc1-c1cc(C)c2ncnn2c1` [Example 172, N,N-dimethyl-2-((5-methyl-6-(8-methyl-[1,2,4]triazolo[1,5-a]pyridin-6-yl)-1H-indazol-3-yl)oxy)ethan-1-amine], for which the IC50 against human TLR8 is 1.4 nM; against human TLR7, 37.2 nM; on human TLR9, 5070 nM.

For `Cc1cc(-c2cc(C)c3ncnn3c2)cc2[nH]nc(OCCN(C)C)c12` [Example 173, N,N-dimethyl-2-((4-methyl-6-(8-methyl-[1,2,4]triazolo[1,5-a]pyridin-6-yl)-1H-indazol-3-yl)oxy)ethan-1-amine], the results for the IC50 at human TLR8, on human TLR7 and against human TLR9 were 8 nM, 18.9 nM and 1850 nM, respectively.

Consider `Cc1cc(-c2cc(C)c3ncnn3c2)cc2[nH]nc(OC3CCNCC3)c12` [Example 174, 8-methyl-6-(4-methyl-3-(piperidin-4-yloxy)-1H-indazol-6-yl)-[1,2,4]triazolo[1,5-a]pyridine], for which the values for the IC50 at human TLR8, against human TLR7 and on human TLR9 were 1.4 nM, 1.8 nM and 438 nM, respectively.

With `Cc1cc(-c2cc(C)c3ncnn3c2)cc2[nH]nc(OC3CCN(C(=O)CN(C)C)CC3)c12` [Example 175, 2-(dimethylamino)-1-(4-((4-methyl-6-(8-methyl-[1,2,4]triazolo[1,5-a]pyridin-6-yl)-1H-indazol-3-yl)oxy)piperidin-1-yl)ethan-1-one], the figures for the IC50 at human TLR8, on human TLR7 and against human TLR9 were 10.6 nM, 5.1 nM and 1630 nM, respectively.

With `Cc1cc(-c2cc(C)c3ncnn3c2)cc2[nH]nc(OC3CCN(CC(=O)N(C)C)CC3)c12` [Example 176, N,N-dimethyl-2-(4-((4-methyl-6-(8-methyl-[1,2,4]triazolo[1,5-a]pyridin-6-yl)-1H-indazol-3-yl)oxy)piperidin-1-yl)acetamide], the values for the IC50 against human TLR8, against human TLR7 and against human TLR9 were 3.8 nM, 12.5 nM and 4920 nM, respectively.

Turning to `Cc1cc(-c2cc(C)c3ncnn3c2)cc2[nH]nc(OC3CCN(C)CC3)c12` [Example 177, 8-methyl-6-(4-methyl-3-((1-methylpiperidin-4-yl)oxy)-1H-indazol-6-yl)-[1,2,4]triazolo[1,5-a]pyridine], the IC50 stood at 0.5 nM on human TLR8, 2.7 nM against human TLR7 and 928 nM against human TLR9.

Turning to `Cc1cc(-c2cc(C)c3ncnn3c2)cc2[nH]nc(OC3CCN(C4CCOCC4)CC3)c12` [Example 178, 8-methyl-6-(4-methyl-3-((1-(tetrahydro-2H-pyran-4-yl)piperidin-4-yl)oxy)-1H-indazol-6-yl)-[1,2,4]triazolo[1,5-a]pyridine], the IC50 on human TLR8 amounted to 0.5 nM; on human TLR7, 6.1 nM; against human TLR9 it was 1620 nM.

With `Cc1cc(-c2cc(C)c3ncnn3c2)cc2[nH]nc(OC3CCC(NCCS(C)(=O)=O)CC3)c12` (stereo not drawn) [Example 187, 4-((4-methyl-6-(8-methyl-[1,2,4]triazolo[1,5-a]pyridin-6-yl)-1H-indazol-3-yl)oxy)-N-(2-(methylsulfonyl)ethyl)cyclohexan-1-amine], the IC50 against human TLR8 stood at 4.9 nM; against human TLR7, 11.3 nM; against human TLR9 it was 1820 nM.

Regarding `Cc1cc(-c2cc(C)c3ncnn3c2)cc2[nH]nc(OC3CCC(NCCS(C)(=O)=O)CC3)c12` (stereo not drawn) [Example 188, 4-((4-methyl-6-(8-methyl-[1,2,4]triazolo[1,5-a]pyridin-6-yl)-1H-indazol-3-yl)oxy)-N-(2-(methylsulfonyl)ethyl)cyclohexan-1-amine], the IC50 stood at 2.3 nM on human TLR8, 4 nM on human TLR7 and 4340 nM against human TLR9.

Consider `Cc1cc(-c2cc(C)c3ncnn3c2)cc2[nH]nc(OC3CCN(Cc4cn(C)nn4)CC3)c12` [Example 193, 8-methyl-6-(4-methyl-3-((1-((1-methyl-1H-1,2,3-triazol-4-yl)methyl)piperidin-4-yl)oxy)-1H-indazol-6-yl)-[1,2,4]triazolo[1,5-a]pyridine], for which the IC50 on human TLR8 worked out at 1.6 nM; against human TLR7, 13.2 nM; at human TLR9, 3730 nM.
